Assay results: patent US20260091020A1, “TREATMENT OF ACUTE CANNABINOID OVERDOSE” (Anebulo Pharmaceuticals, Inc., priority 2022, published 2026)
“Also recorded” adds a separate entry of the source.

Assay: Safety/tolerability in the phase 2 THC challenge study (50 and 100 mg Compound 1)
Conditions: for QTcF, mean increase from baseline: 3 hours post dose, 3.1 ms in placebo group
[1] = 50 mg Compound 1 group (20 per arm)
[2] = 100 mg Compound 1 group (20 per arm)

CC(C)(C)NC(=O)N1CC(O[C@H](c2ccc(Cl)cc2)c2ccccc2C(F)(F)F)C1 [Compound 1, (R)—N-(tert-butyl)-3-((4-chlorophenyl)(2-(trifluoromethyl)phenyl)methoxy)azetidine-1-carboxamide]
VAS nausea (10.5 mg THC + 50 or 100 mg Compound 1 vs THC/placebo): No significant difference overall between treatment groups | Depressed mood, number of subjects [1]: 1 subject | Feeling hot, number of subjects [1]: 6 subjects | Hyperhidrosis, number of subjects [1]: 6 subjects | Nausea, number of subjects [1]: 13 subjects | Vomiting, number of subjects [1]: 1 subject | QTcF, mean increase from baseline (50 mg Compound 1 group): 7.9 ms | Heart rate, mean increase following dosing (up to) (50 mg and 100 mg Compound 1 group, placebo group up to ~6 bpm): 3-4 bpm | Depressed mood, number of subjects [2]: 2 subjects | Feeling hot, number of subjects [2]: 4 subjects | Hyperhidrosis, number of subjects [2]: 7 subjects | Nausea, number of subjects [2]: 8 subjects | Vomiting, number of subjects [2]: 6 subjects | QTcF, mean increase from baseline (100 mg Compound 1 group): 9.9 ms | Increase in total bilirubin compared to baseline (50 and 100 mg Compound 1 groups, 24 h post dose, 1.4 mol/L in placebo group): 5 | Severity of adverse events (50 and 100 mg Compound 1 with 10.5 mg THC): mild and transient except in the case of one subject in the 50 mg Compound 1 group who experienced moderate nausea and vomiting; also recorded: transient and of mild severity, except one case of vomiting of moderate severity in the 50 mg Compound 1 treatment group | AESI: systolic blood pressure increase compared to baseline (one subject, 100 mg Compound 1 group): > 30 mmHg | Overall safety and tolerability (single doses of 50 and 100 mg Compound 1): safe and well tolerated by most subjects
